Key:
Format in all cases: functional, cell-based
Conditions in all cases: Oocyte
[1] = biological target: Solute carrier family 15 member 2 (Mus musculus) (UniProt Q9ES07); assay: (§1) TP_TRANSPORTER: uptake (electrogenesis) in Xenopus laevis oocytes
[2] = biological target: T1, Solute carrier family 15 member 2 (Mus musculus) (UniProt Q9ES07); assay: TP_TRANSPORTER: uptake in Xenopus laevis oocytes
T1 sequence (whole entry): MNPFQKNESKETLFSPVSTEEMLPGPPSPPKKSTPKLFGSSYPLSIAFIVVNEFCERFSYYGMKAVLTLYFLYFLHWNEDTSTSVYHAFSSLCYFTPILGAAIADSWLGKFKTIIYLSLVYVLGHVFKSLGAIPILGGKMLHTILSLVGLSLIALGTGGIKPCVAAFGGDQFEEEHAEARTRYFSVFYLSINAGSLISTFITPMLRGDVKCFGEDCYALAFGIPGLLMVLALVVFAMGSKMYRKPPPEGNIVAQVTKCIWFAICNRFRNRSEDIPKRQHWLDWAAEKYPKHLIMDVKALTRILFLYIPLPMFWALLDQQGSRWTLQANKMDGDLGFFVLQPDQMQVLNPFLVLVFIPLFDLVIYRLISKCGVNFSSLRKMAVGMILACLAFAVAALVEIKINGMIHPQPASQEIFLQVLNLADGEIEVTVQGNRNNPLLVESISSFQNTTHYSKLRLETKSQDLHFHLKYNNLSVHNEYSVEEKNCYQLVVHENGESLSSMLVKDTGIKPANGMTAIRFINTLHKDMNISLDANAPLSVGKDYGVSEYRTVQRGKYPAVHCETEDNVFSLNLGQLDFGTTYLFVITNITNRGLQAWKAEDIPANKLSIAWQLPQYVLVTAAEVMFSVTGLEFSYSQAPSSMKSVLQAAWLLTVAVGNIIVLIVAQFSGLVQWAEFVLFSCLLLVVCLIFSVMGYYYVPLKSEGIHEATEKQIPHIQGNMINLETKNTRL

[3] = biological target: T1, Solute carrier family 15 member 2 (Mus musculus); assay: as §1; remark: listed apart in the source

Activity [3] | Compound | also measured
substrate [+] | N[C@@H](CS)C(=O)NCC(=O)O | 
substrate [+] | NCCC(=O)N[C@@H](Cc1c[nH]cn1)C(=O)O | 

Further lines, the compound ahead of its results:

Compound | Activity [3] | also measured
BETA-ENDORPHIN |  | Activity [1]: substrate [+]
NC(=O)CC[C@H](NC(=O)[C@@H](N)Cc1ccccc1)C(=O)O |  | Activity [2]: substrate [+]
NC(N)=NCCC[C@H](NC(=O)[C@@H](N)Cc1ccc(O)cc1)C(=O)O | substrate [+] | 

From ChEMBL document CHEMBL2073922, “Cloning and characterization of the gene encoding the mouse peptide transporter PEPT2” (Biochem Biophys Res Commun, 2000)
